Marks after values point to notes of the source that are not given here.
Columns and labels:
[1] = DSC of Dispersions A-J (oxaprozin or 5-methyl-5-phenylhydantoin) and pure drugs; format: physicochemical; settings: heating rate 10° C./min
Experimental: (§1) Thermogravimetric analysis (TGA) of Dispersions A-J was performed using a Q500 instrument from TA Instruments. The decomposition temperature (Td) at 5% was recorded for each dispersion and Td,1% was recorded for the pure drugs. Td,5% was recorded for the dispersions due to the hydrophilic properties of the surfactants, which required removal of surface moisture before the materials began to decompose. Differential Scanning Calorimetry (DSC) experiments were performed on Dispersions A-J and pure oxaprozin and 5-methyl-5-phenylhydantoin using a Discovery Series instrument from TA Instruments. Each dispersion was heated twice to Td,5%. The pure compounds were heated twice to Td,1%. The heating rate in all experiments was 10° C./min. […] These values approached the Tg value of pure surfactants (135.76° C.) as the ratio of the molecular weight of the poly(N-isopropylacrylamide) hydrophilic segment in kDa/mol to (m+1) increased. Generally, the dispersions including oxaprozin yielded lower Tg values. Without being bound by theory, the lower Tg values might be attributable to the larger size of oxaprozin, which would further disrupt surfactant packing.

[2] = TGA of Dispersions A-J (oxaprozin or 5-methyl-5-phenylhydantoin) and pure drugs; format: physicochemical; settings: pure drugs
Experimental: as §1

Row | First Heat Tg [1] [°C] | Td,1% [2] | SMILES
1 | 21 | 206* ° C. | O=C(O)CCc1nc(-c2ccccc2)c(-c2ccccc2)o1 [Oxaprozin, oxaprozin]
2 | 134 | 188* ° C. | CC1(c2ccccc2)NC(=O)NC1=O (stereo not shown) [5-methyl-5-phenylhydantoin]
